Measured values published in article PMC10700596 (Nature Communications, 2023).
Where “and” joins values, the source holds several entries; their conditions need not be identical. Equal entries are not always repeated.

Assays:
[1] = target: T1, Thromboxane A2 (TP) receptor (Homo sapiens, UniProt P21731); test: Functional cAMP production assay, TP receptor; assay type: cell-based
T1 sequence (P21731 1-343): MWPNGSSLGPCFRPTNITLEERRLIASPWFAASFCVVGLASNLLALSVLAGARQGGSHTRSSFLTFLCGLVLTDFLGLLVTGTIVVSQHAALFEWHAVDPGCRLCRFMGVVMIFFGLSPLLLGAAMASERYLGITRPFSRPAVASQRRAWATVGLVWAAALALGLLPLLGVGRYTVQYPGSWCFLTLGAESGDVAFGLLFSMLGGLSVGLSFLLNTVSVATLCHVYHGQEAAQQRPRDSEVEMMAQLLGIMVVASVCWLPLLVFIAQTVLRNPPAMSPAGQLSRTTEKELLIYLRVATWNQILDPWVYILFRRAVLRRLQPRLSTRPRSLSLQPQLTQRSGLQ

320 GPCRs [2] = target: 320 GPCRs (Homo sapiens, UniProt O00222); assay type: cell-based
320 GPCRs [3] = target: 320 GPCRs (Homo sapiens, UniProt O00421); assay type: cell-based
320 GPCRs [4] = target: 320 GPCRs (Homo sapiens, UniProt O00574); assay type: cell-based
320 GPCRs [5] = target: 320 GPCRs (Homo sapiens, UniProt O15218); assay type: cell-based
320 GPCRs [6] = target: 320 GPCRs (Homo sapiens, UniProt O95136); assay type: cell-based
320 GPCRs [7] = target: 320 GPCRs (Homo sapiens, UniProt P14416); assay type: cell-based
320 GPCRs [8] = target: 320 GPCRs (Homo sapiens, UniProt P18825); assay type: cell-based
320 GPCRs [9] = target: 320 GPCRs (Homo sapiens, UniProt P21453); assay type: cell-based
320 GPCRs [10] = target: 320 GPCRs (Homo sapiens, UniProt P21731); assay type: cell-based
320 GPCRs [11] = target: 320 GPCRs (Homo sapiens, UniProt P24530); assay type: cell-based
Chain of 320 GPCRs (Homo sapiens, UniProt P24530) (P24530 27-442): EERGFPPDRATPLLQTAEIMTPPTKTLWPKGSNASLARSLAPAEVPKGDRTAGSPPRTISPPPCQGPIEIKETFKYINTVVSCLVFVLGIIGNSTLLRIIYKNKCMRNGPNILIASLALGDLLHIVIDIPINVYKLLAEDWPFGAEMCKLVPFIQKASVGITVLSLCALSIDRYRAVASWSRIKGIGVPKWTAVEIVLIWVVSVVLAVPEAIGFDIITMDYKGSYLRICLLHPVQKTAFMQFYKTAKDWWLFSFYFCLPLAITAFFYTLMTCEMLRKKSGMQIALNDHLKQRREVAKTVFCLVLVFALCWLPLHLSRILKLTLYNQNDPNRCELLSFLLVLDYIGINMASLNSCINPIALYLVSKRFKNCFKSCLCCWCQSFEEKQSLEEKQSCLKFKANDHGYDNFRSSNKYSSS

320 GPCRs [12] = target: 320 GPCRs (Homo sapiens, UniProt P25021); assay type: cell-based
320 GPCRs [13] = target: 320 GPCRs (Homo sapiens, UniProt P30968); assay type: cell-based
Chain of 320 GPCRs (Homo sapiens, UniProt P30968) (P30968 whole entry): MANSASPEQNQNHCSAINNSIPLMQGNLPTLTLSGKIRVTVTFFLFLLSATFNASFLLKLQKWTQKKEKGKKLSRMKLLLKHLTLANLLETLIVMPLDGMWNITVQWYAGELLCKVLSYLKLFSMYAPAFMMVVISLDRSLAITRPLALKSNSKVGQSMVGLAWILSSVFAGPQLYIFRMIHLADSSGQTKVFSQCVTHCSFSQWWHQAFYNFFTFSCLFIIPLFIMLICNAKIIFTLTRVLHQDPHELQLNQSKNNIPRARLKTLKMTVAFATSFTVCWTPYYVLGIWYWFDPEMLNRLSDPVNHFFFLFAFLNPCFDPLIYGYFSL

320 GPCRs [14] = target: 320 GPCRs (Homo sapiens, UniProt P35410); assay type: cell-based
320 GPCRs [15] = target: 320 GPCRs (Homo sapiens, UniProt P41595); assay type: cell-based
320 GPCRs [16] = target: 320 GPCRs (Homo sapiens, UniProt P41968); assay type: cell-based
320 GPCRs [17] = target: 320 GPCRs (Homo sapiens, UniProt P43088); assay type: cell-based
320 GPCRs [18] = target: 320 GPCRs (Homo sapiens, UniProt P47211); assay type: cell-based
320 GPCRs [19] = target: 320 GPCRs (Homo sapiens, UniProt P47901); assay type: cell-based
Chain of 320 GPCRs (Homo sapiens, UniProt P47901) (P47901 whole entry): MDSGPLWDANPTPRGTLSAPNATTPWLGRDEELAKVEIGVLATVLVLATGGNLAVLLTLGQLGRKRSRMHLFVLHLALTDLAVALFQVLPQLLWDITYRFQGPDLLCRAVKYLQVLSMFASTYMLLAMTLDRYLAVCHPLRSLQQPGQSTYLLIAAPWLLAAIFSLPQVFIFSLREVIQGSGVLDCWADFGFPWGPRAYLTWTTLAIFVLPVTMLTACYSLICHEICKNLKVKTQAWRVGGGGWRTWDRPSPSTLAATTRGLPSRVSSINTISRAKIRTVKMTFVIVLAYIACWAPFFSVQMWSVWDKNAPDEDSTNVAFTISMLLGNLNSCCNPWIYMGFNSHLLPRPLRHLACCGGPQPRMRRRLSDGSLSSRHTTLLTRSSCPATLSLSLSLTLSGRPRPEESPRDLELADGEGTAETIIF

320 GPCRs [20] = target: 320 GPCRs (Homo sapiens, UniProt P49019); assay type: cell-based
320 GPCRs [21] = target: 320 GPCRs (Homo sapiens, UniProt P49238); assay type: cell-based
320 GPCRs [22] = target: 320 GPCRs (Homo sapiens, UniProt P49685); assay type: cell-based
320 GPCRs [23] = target: 320 GPCRs (Homo sapiens, UniProt P51684); assay type: cell-based
320 GPCRs [24] = target: 320 GPCRs (Homo sapiens, UniProt P51685); assay type: cell-based
320 GPCRs [25] = target: 320 GPCRs (Homo sapiens, UniProt Q13255); assay type: cell-based
Chain of 320 GPCRs (Homo sapiens, UniProt Q13255) (Q13255 19-1194): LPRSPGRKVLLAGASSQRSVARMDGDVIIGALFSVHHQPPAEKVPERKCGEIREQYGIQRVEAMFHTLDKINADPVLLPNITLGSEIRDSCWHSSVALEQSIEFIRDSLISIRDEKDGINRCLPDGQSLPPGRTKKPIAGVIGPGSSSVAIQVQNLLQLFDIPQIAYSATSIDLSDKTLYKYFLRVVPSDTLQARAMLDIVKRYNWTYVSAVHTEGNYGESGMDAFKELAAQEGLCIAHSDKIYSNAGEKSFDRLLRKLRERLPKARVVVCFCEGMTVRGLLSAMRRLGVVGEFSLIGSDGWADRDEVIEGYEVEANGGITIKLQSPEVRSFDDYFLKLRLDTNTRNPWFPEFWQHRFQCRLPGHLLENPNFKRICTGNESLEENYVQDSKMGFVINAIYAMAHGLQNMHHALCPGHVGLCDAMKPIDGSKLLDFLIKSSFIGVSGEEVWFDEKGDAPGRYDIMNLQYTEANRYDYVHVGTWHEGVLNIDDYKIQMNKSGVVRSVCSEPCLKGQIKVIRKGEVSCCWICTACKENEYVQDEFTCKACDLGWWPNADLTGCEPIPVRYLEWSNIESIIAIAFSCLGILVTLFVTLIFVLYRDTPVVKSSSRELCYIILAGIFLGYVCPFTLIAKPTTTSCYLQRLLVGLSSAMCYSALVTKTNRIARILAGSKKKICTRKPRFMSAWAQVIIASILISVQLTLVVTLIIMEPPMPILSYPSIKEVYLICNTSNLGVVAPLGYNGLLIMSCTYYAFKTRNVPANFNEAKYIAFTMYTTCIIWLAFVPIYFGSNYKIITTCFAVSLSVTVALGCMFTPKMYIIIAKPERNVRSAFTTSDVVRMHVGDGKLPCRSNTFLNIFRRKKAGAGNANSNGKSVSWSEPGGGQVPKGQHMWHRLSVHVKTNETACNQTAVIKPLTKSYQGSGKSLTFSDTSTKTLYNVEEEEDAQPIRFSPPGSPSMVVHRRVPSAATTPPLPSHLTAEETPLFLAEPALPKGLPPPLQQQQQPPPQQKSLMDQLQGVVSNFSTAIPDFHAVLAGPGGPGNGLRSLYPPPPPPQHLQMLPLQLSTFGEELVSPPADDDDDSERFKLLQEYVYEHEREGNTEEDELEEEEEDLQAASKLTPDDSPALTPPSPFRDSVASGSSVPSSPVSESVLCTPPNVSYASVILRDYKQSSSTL

320 GPCRs [26] = target: 320 GPCRs (Homo sapiens, UniProt Q13304); assay type: cell-based
320 GPCRs [27] = target: 320 GPCRs (Homo sapiens, UniProt Q14416); assay type: cell-based
320 GPCRs [28] = target: 320 GPCRs (Homo sapiens, UniProt Q16581); assay type: cell-based
Chain of 320 GPCRs (Homo sapiens, UniProt Q16581) (Q16581 whole entry): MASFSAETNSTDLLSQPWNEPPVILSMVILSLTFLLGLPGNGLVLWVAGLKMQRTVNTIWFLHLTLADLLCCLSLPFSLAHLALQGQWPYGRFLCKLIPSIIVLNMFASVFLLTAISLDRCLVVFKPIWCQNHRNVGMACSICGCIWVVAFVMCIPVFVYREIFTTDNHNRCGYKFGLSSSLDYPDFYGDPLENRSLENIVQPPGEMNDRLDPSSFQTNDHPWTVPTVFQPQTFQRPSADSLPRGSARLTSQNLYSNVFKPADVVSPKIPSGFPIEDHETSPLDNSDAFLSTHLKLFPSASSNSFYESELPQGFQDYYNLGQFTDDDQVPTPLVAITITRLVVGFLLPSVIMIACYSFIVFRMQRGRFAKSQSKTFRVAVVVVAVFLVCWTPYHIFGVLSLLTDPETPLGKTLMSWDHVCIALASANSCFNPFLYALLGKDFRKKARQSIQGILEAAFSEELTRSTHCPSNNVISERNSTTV

320 GPCRs [29] = target: 320 GPCRs (Homo sapiens, UniProt Q7Z601); assay type: cell-based
320 GPCRs [30] = target: 320 GPCRs (Homo sapiens, UniProt Q8IZF5); assay type: cell-based
Chain of 320 GPCRs (Homo sapiens, UniProt Q8IZF5) (Q8IZF5 26-1079): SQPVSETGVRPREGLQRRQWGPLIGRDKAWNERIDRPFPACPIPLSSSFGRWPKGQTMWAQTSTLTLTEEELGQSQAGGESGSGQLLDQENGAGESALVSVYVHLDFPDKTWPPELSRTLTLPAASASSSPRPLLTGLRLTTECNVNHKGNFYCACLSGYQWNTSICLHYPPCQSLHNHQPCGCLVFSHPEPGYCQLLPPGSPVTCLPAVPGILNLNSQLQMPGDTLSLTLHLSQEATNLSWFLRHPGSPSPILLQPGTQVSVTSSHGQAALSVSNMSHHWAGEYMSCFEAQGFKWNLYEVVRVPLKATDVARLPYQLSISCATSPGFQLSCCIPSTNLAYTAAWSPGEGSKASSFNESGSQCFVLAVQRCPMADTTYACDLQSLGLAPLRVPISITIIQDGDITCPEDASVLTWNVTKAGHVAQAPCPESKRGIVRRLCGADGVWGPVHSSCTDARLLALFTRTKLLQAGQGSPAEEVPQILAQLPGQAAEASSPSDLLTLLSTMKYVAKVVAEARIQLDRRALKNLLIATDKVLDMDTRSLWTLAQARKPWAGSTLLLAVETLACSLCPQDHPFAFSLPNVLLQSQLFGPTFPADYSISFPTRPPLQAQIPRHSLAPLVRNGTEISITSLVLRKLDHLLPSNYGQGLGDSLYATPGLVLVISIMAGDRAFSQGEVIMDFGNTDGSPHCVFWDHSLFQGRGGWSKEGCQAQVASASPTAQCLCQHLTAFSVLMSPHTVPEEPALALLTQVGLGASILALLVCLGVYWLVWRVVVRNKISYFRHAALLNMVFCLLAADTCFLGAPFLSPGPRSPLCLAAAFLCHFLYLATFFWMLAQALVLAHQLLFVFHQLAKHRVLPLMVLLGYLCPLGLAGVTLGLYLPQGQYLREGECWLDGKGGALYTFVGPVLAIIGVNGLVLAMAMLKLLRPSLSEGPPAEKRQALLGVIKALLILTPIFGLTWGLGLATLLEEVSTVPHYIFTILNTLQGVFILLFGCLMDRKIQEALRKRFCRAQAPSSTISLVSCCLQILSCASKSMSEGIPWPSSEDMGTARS

320 GPCRs [31] = target: 320 GPCRs (Homo sapiens, UniProt Q8NFJ6); assay type: cell-based
320 GPCRs [32] = target: 320 GPCRs (Homo sapiens, UniProt Q8TDV5); assay type: cell-based
Chain of 320 GPCRs (Homo sapiens, UniProt Q8TDV5) (Q8TDV5 whole entry): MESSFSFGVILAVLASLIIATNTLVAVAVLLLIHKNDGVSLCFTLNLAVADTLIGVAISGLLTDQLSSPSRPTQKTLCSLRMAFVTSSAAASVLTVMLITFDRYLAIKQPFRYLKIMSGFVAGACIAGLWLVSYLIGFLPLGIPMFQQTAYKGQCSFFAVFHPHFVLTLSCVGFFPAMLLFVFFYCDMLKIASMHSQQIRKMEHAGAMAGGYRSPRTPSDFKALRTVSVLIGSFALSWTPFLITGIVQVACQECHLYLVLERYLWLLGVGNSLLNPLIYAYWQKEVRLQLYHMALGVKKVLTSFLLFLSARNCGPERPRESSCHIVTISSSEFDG

320 GPCRs [33] = target: 320 GPCRs (Homo sapiens, UniProt Q96LB0); assay type: cell-based
Chain of 320 GPCRs (Homo sapiens, UniProt Q96LB0) (Q96LB0 whole entry): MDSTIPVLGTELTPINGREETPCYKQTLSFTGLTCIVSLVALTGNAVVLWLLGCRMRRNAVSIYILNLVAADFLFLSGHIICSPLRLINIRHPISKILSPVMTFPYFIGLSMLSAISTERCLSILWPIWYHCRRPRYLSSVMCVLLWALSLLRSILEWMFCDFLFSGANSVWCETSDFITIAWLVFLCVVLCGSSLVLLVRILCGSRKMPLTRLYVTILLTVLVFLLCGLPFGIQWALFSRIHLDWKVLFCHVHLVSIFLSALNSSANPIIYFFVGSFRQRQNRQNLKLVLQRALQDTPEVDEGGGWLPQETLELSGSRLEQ

320 GPCRs [34] = target: 320 GPCRs (Homo sapiens, UniProt Q99678); assay type: cell-based
320 GPCRs [35] = target: 320 GPCRs (Homo sapiens, UniProt Q9NPC1); assay type: cell-based
320 GPCRs [36] = target: 320 GPCRs (Homo sapiens, UniProt Q9UKP6); assay type: cell-based
Chain of 320 GPCRs (Homo sapiens, UniProt Q9UKP6) (Q9UKP6 whole entry): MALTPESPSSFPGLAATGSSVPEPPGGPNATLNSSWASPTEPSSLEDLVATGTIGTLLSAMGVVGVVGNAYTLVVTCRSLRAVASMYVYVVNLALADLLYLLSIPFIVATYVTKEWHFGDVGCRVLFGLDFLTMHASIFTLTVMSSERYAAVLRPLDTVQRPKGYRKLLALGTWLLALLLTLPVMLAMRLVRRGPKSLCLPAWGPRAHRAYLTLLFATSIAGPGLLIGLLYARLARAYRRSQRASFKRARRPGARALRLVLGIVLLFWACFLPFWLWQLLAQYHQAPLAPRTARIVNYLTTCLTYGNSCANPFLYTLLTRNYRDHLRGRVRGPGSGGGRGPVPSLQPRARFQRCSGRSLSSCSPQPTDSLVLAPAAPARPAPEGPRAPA

320 GPCRs [37] = target: 320 GPCRs (Homo sapiens, UniProt Q9Y653); assay type: cell-based
ABL1-nonphosphorylated = ABL1-nonphosphorylated (Homo sapiens, UniProt P00519); test: biochemical; assay type: binding; details: 10000 nM; read-out: Percent Control

Compound: O=C(O)C1CCC2(CC1)CC(Nc1ncnc3[nH]c4c(F)cccc4c13)C2 (centres unmarked) [Compound 74, OC(=O)C1CCC2(CC(C2)NC=3N=CN=C4NC=5C(F)=CC=CC5C34)CC1]
- off-target activity at thromboxane A2 receptor [1]: no off-target activities
- RLU (Fold over Basal) (320 GPCRs [2]): 1.1 Fold over Basal and 0.8 Fold over Basal and 1.5 Fold over Basal
- RLU (Fold over Basal) (320 GPCRs [3]): 2.1 Fold over Basal and 1.6 Fold over Basal and 1.9 Fold over Basal and 2.4 Fold over Basal
- RLU (Fold over Basal) (320 GPCRs [4]): 0.7 Fold over Basal and 1.2 Fold over Basal and 0.9 Fold over Basal and 0.6 Fold over Basal
- RLU (Fold over Basal) (320 GPCRs [5]): 0.5 Fold over Basal and 0.9 Fold over Basal and 0.6 Fold over Basal
- RLU (Fold over Basal) (320 GPCRs [6]): 0.3 Fold over Basal and 0.2 Fold over Basal
- RLU (Fold over Basal) (320 GPCRs [7]): 0.6 Fold over Basal and 0.5 Fold over Basal
- RLU (Fold over Basal) (320 GPCRs [8]): 0.6 Fold over Basal and 0.8 Fold over Basal
- RLU (Fold over Basal) (320 GPCRs [9]): 1 Fold over Basal and 1.6 Fold over Basal and 1.5 Fold over Basal
- RLU (Fold over Basal) (320 GPCRs [10]): 1.2 Fold over Basal and 1.1 Fold over Basal and 0.7 Fold over Basal
- RLU (Fold over Basal) (320 GPCRs [11]): 1.2 Fold over Basal and 0.6 Fold over Basal and 0.8 Fold over Basal and 0.9 Fold over Basal
- RLU (Fold over Basal) (320 GPCRs [12]): 1 Fold over Basal and 1.4 Fold over Basal
- RLU (Fold over Basal) (320 GPCRs [13]): 1 Fold over Basal and 0.5 Fold over Basal and 0.6 Fold over Basal
- RLU (Fold over Basal) (320 GPCRs [14]): 0.7 Fold over Basal and 1 Fold over Basal and 0.9 Fold over Basal and 0.6 Fold over Basal
- RLU (Fold over Basal) (320 GPCRs [15]): 0.8 Fold over Basal and 0.9 Fold over Basal and 0.7 Fold over Basal and 1 Fold over Basal
- RLU (Fold over Basal) (320 GPCRs [16]): 0.5 Fold over Basal and 1 Fold over Basal and 0.7 Fold over Basal and 0.8 Fold over Basal
- RLU (Fold over Basal) (320 GPCRs [17]): 1.2 Fold over Basal and 1.4 Fold over Basal and 1 Fold over Basal
- RLU (Fold over Basal) (320 GPCRs [18]): 0.8 Fold over Basal and 0.7 Fold over Basal and 0.9 Fold over Basal and 0.6 Fold over Basal
- RLU (Fold over Basal) (320 GPCRs [19]): 0.9 Fold over Basal and 1 Fold over Basal and 0.5 Fold over Basal
- RLU (Fold over Basal) (320 GPCRs [20]): 0.9 Fold over Basal and 0.7 Fold over Basal and 1 Fold over Basal
- RLU (Fold over Basal) (320 GPCRs [21]): 1 Fold over Basal
- RLU (Fold over Basal) (320 GPCRs [22]): 0.4 Fold over Basal and 0.5 Fold over Basal and 0.6 Fold over Basal and 0.7 Fold over Basal
- RLU (Fold over Basal) (320 GPCRs [23]): 0.7 Fold over Basal and 1 Fold over Basal and 0.9 Fold over Basal
- RLU (Fold over Basal) (320 GPCRs [24]): 1.6 Fold over Basal and 1.2 Fold over Basal and 0.8 Fold over Basal and 1.5 Fold over Basal
- RLU (Fold over Basal) (320 GPCRs [25]): 0.9 Fold over Basal and 1.1 Fold over Basal and 0.8 Fold over Basal
- RLU (Fold over Basal) (320 GPCRs [26]): 0.4 Fold over Basal and 0.6 Fold over Basal and 0.5 Fold over Basal
- RLU (Fold over Basal) (320 GPCRs [27]): 1 Fold over Basal and 1.1 Fold over Basal and 0.9 Fold over Basal
- RLU (Fold over Basal) (320 GPCRs [28]): 1.2 Fold over Basal and 1.3 Fold over Basal and 0.8 Fold over Basal and 1 Fold over Basal
- RLU (Fold over Basal) (320 GPCRs [29]): 0.6 Fold over Basal and 1 Fold over Basal
- RLU (Fold over Basal) (320 GPCRs [30]): 1.6 Fold over Basal and 1.9 Fold over Basal and 1.1 Fold over Basal and 1.2 Fold over Basal
- RLU (Fold over Basal) (320 GPCRs [31]): 0.7 Fold over Basal and 1.4 Fold over Basal and 1.3 Fold over Basal and 1.1 Fold over Basal
- RLU (Fold over Basal) (320 GPCRs [32]): 0.5 Fold over Basal and 0.6 Fold over Basal and 0.8 Fold over Basal
- RLU (Fold over Basal) (320 GPCRs [33]): 1 Fold over Basal and 1.4 Fold over Basal and 0.9 Fold over Basal
- RLU (Fold over Basal) (320 GPCRs [34]): 0.9 Fold over Basal and 1.6 Fold over Basal and 0.8 Fold over Basal
- RLU (Fold over Basal) (320 GPCRs [35]): 0.9 Fold over Basal and 1.5 Fold over Basal and 0.8 Fold over Basal and 1.3 Fold over Basal
- RLU (Fold over Basal) (320 GPCRs [36]): 0.6 Fold over Basal and 0.7 Fold over Basal and 0.9 Fold over Basal
- RLU (Fold over Basal) (320 GPCRs [37]): 0.9 Fold over Basal and 0.7 Fold over Basal and 0.8 Fold over Basal
- remaining activity at 10 µM (ABL1-nonphosphorylated): 67%
